According to patent publication US12281149B2, “Modulators of G-protein coupled receptors” (priority 2021, dated 2025):
pEC50: −log10 of the molar value. *1 amine or outer side, *2 acyl side, *3 side chain or, on linkers, in order; H or OH if unused. Where a SMILES comes first, the peptide text is derived from it. Side-chain parts run from the residue outwards. [ ]: non-standard residue; d: D form. The star is where a group is joined. Isobutyryl(2-(3-CN-5-F-Ph)) = CC(C)(C(=O)*)c1cc(F)cc(C#N)c1; cPentCO(1-(4-ClPh)) = O=C(C1(c2ccc(Cl)cc2)CCCC1)*; C20 diacid = O=C(O)CCCCCCCCCCCCCCCCCCC(=O)*; β2hAla(2S) = C[C@@H](CN[*:1])C(=O)[*:2]; γGlu = O=C(O)[C@H](CCC(=O)[*:2])N[*:1]; AEEA = NCCOCCOCC(=O)O; Aib = CC(C)(N)C(=O)O; CO = O=C([*:1])[*:2]; X63 = Fc1ccc(N*)cc1F; GABA = NCCCC(=O)O; βAla = NCCC(=O)O

Legend:
Assay type in all cases: cell-based
GLP-1 receptor [1] = biological target: T1, GLP-1 receptor (Homo sapiens, UniProt P43220); test: HitHunter cAMP assay, GLP-1 receptor; conditions: for pEC50: CHO cells stably expressing human GLP-1 receptor, cAMP accumulation, 30 min, read-out: EC50 GLP-1R; for Emax: CHO cells, cAMP, normalized to maximum signal from GLP-1 (high) and DMSO (low), read-out: Emax GLP-1R
T1 sequence (P43220 24-463): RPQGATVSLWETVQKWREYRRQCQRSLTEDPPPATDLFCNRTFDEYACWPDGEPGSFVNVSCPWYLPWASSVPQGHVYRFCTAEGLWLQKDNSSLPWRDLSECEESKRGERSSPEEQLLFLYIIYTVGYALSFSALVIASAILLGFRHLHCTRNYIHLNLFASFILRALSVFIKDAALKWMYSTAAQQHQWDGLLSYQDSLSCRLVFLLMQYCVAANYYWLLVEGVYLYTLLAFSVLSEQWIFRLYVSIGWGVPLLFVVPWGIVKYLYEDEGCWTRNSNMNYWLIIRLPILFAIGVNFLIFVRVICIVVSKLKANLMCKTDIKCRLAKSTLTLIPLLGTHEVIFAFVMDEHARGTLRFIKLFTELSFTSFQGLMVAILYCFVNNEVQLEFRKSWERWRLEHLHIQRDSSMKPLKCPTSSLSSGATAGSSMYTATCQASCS

GIP receptor [2] = biological target: T2, GIP receptor (Homo sapiens, UniProt P48546); test: HitHunter cAMP assay, GIP receptor; conditions: for pEC50: CHO cells stably expressing GIP receptor, cAMP accumulation, 30 min, read-out: EC50 GIP-1R; for Emax: CHO cells, cAMP, normalized to maximum signal from GIP (high) and DMSO (low), read-out: Emax GIP-1R
T2 sequence (P48546 22-466): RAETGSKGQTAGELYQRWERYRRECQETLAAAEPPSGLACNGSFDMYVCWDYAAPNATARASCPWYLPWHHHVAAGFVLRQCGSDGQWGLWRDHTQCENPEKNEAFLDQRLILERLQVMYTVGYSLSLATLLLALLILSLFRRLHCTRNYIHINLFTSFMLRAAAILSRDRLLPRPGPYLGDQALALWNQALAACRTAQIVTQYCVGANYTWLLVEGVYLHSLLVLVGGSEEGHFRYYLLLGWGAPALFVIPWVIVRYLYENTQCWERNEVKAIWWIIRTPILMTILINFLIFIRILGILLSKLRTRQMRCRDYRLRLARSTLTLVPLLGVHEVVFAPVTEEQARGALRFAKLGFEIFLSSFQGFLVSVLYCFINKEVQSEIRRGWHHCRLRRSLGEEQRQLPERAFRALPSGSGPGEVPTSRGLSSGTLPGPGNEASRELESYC

GIP receptor [3] = biological target: T2, GIP receptor; test: PathHunter β-arrestin assay, GIP receptor; set-up: host or cells: PathHunter CHO-K1 GIPR β-Arrestin Cell Line; conditions: β-arrestin-2 recruitment, PathHunter CHO-K1 GIPR β-Arrestin Cell Line, 90 min at 37° C.; normalized to GIP; read-out: GIPR β Arrestin EC50
Description: β-arrestin-2 recruitment for GLP-1 receptor or GIP receptor was measured using the DiscoverX PathHunter Detection Kit and PathHunter® CHO-K1 GLPIR β-Arrestin Cell Line or PathHunter® CHO-K1 GIPR β-Arrestin Cell Line, respectively). Briefly, cells were grown in Ham's F12 Nutrient Mix with 10% FBS and lifted with Cell dissociation buffer, Enzyme free, PBS based (ThermoFisher). Harvested cells were pelleted and resuspended in Assay Complete Cell Plating Reagent 2 and 5000 cells per well were plated in tissue culture treated 384-well small volume white assay plates. Plates were then incubated at 37° C. and 5% CO2 overnight. The media was then replaced with fresh Assay Complete Cell Plating Reagent 2. Cells were then treated with 10 nl compound in DMSO using an ECHO 550 acoustic dispenser (Labcyte) in a 20-point dose response format in duplicate for 90 min at 37° C. The assay was then completed according to the manufacturer's instructions. Luminescence was measured using a Perkin Elmer Envision plate reader. Raw data was normalized to the maximum signal from GLP-1 or GIP (high) and DMSO (low). Dose response curves were analyzed using GraphPad Prism 9.0.

GLP-1 receptor [4] = biological target: T1, GLP-1 receptor; test: PathHunter β-arrestin assay, GLP-1 receptor; set-up: host or cells: PathHunter CHO-K1 GLP1R β-Arrestin Cell Line; conditions: β-arrestin-2 recruitment, PathHunter CHO-K1 GLP1R β-Arrestin Cell Line, 90 min at 37° C.; normalized to GLP-1; read-out: GLP-1R β Arrestin EC50

| SMILES | pEC50 (GLP-1 receptor [1]) | Emax (GLP-1 receptor [1]) | pEC50 (GIP receptor [2]) | Emax (GIP receptor [2]) | pEC50 (GIP receptor [3]) | pEC50 (GLP-1 receptor [4]) |
| --- | --- | --- | --- | --- | --- | --- |
| CC[C@H](C)[C@H](NC(=O)[C@H](CO)NC(=O)[C@H](Cc1ccc(O)cc1)NC(=O)[C@H](CC(=O)O)NC(=O)[C@H](CO)NC(=O)[C@@H](NC(=O)[C@H](Cc1ccccc1)NC(=O)[C@@H](NC(=O)CNC(=O)[C@H](CCC(=O)O)NC(=O)CCNC(=O)C(C)(C)c1cc(F)cc(C#N)c1)[C@@H](C)O)[C@@H](C)O)C(=O)N[C@@H](Cc1ccc(O)cc1)C(=O)N[C@@H](CC(C)C)C(=O)N[C@@H](CC(=O)O)C(=O)N[C@@H](CCCCN)C(=O)N[C@@H](CCCCNC(=O)COCCOCCNC(=O)COCCOCCNC(=O)CC[C@H](NC(=O)CCCCCCCCCCCCCCCCCCC(=O)O)C(=O)O)C(=O)N[C@@H](C)C(=O)N[C@@H](C)C(=O)NC(C)(C)C(=O)N[C@@H](CCC(=O)O)C(=O)N[C@@H](Cc1ccccc1)C(=O)N[C@H](C(=O)N[C@@H](CC(N)=O)C(=O)N[C@@H](Cc1c[nH]c2ccccc12)C(=O)N[C@@H](CC(C)C)C(=O)N[C@@H](CC(C)C)C(=O)N[C@@H](C)C(=O)NCC(=O)NCC(=O)N1CCC[C@H]1C(=O)N[C@@H](CO)C(=O)N[C@@H](CO)C(=O)NCC(=O)N[C@@H](C)C(=O)N1CCC[C@H]1C(=O)N1CCC[C@H]1C(=O)N1CCC[C@H]1C(=O)N[C@@H](CO)C(N)=O)C(C)C [Compound 114] ({Isobutyryl(2-(3-CN-5-F-Ph))-βAla}-EGTFTSDYSIYLDKK([AEEA-AEEA-γGlu-C20 diacid])AA[Aib]EFVNWLLAGGPSSGAPPPS-NH2) | 9.00 to 10.00 | 114% | 7.00 to 8.00 | 95% | < 6.00 | < 6.00 |
| CC[C@H](C)[C@H](NC(=O)[C@H](CO)NC(=O)[C@H](Cc1ccc(O)cc1)NC(=O)[C@H](CC(=O)O)NC(=O)[C@H](CO)NC(=O)[C@@H](NC(=O)[C@H](Cc1ccccc1)NC(=O)[C@@H](NC(=O)CNC(=O)[C@H](CCC(=O)O)NC(=O)CCNC(=O)[C@]1(c2ccccc2)CNC(=O)C1)[C@@H](C)O)[C@@H](C)O)C(=O)N[C@@H](Cc1ccc(O)cc1)C(=O)N[C@@H](CC(C)C)C(=O)N[C@@H](CC(=O)O)C(=O)N[C@@H](CCCCN)C(=O)N[C@@H](CCCCNC(=O)COCCOCCNC(=O)COCCOCCNC(=O)CC[C@H](NC(=O)CCCCCCCCCCCCCCCCCCC(=O)O)C(=O)O)C(=O)N[C@@H](C)C(=O)N[C@@H](C)C(=O)NC(C)(C)C(=O)N[C@@H](CCC(=O)O)C(=O)N[C@@H](Cc1ccccc1)C(=O)N[C@H](C(=O)N[C@@H](CC(N)=O)C(=O)N[C@@H](Cc1c[nH]c2ccccc12)C(=O)N[C@@H](CC(C)C)C(=O)N[C@@H](CC(C)C)C(=O)N[C@@H](C)C(=O)NCC(=O)NCC(=O)N1CCC[C@H]1C(=O)N[C@@H](CO)C(=O)N[C@@H](CO)C(=O)NCC(=O)N[C@@H](C)C(=O)N1CCC[C@H]1C(=O)N1CCC[C@H]1C(=O)N1CCC[C@H]1C(=O)N[C@@H](CO)C(N)=O)C(C)C (single isomer, unassigned) [Compound 113] | 9.00 to 10.00 | 112% | 8.00 to 9.00 | 98% | < 6.00 | < 6.00 |
| CC[C@H](C)[C@H](NC(=O)[C@H](CC(C)C)NC(=O)[C@H](Cc1c[nH]c2ccccc12)NC(=O)[C@H](CCC(N)=O)NC(=O)[C@@H](NC(=O)[C@H](Cc1ccccc1)NC(=O)[C@H](C)NC(=O)[C@H](CCCCNC(=O)COCCOCCNC(=O)COCCOCCNC(=O)CC[C@H](NC(=O)CCCCCCCCCCCCCCCCCCC(=O)O)C(=O)O)NC(=O)[C@H](CCC(N)=O)NC(=O)[C@H](C)NC(=O)[C@@H](NC(=O)[C@H](CCCCN)NC(=O)[C@H](CC(=O)O)NC(=O)[C@H](CC(C)C)NC(=O)C(C)(C)NC(=O)[C@@H](NC(=O)[C@H](CO)NC(=O)[C@H](Cc1ccc(O)cc1)NC(=O)[C@H](CC(=O)O)NC(=O)[C@H](CO)NC(=O)[C@@H](NC(=O)[C@H](Cc1ccccc1)NC(=O)[C@@H](NC(=O)CNC(=O)[C@H](CCC(=O)O)NC(=O)[C@@H](C)CNC(=O)C1(c2ccc(Cl)cc2)CCCC1)[C@@H](C)O)[C@@H](C)O)[C@@H](C)CC)[C@@H](C)CC)C(C)C)C(=O)N[C@@H](C)C(=O)NCC(=O)NCC(=O)N1CCC[C@H]1C(=O)N[C@@H](CO)C(=O)N[C@@H](CO)C(=O)NCC(=O)N[C@@H](C)C(=O)N1CCC[C@H]1C(=O)N1CCC[C@H]1C(=O)N1CCC[C@H]1C(=O)N[C@@H](CO)C(N)=O [Compound 181] ({cPentCO(1-(4-ClPh))}-[β2hAla(2S)]EGTFTSDYSI[Aib]LDKIAQK([AEEA-AEEA-γGlu-C20 diacid])AFVQWLIAGGPSSGAPPPS-NH2) | 9.00 to 10.00 | 97% | 8.00 to 9.00 | 106% | > 6.00 | < 6.00 |
| CC[C@H](C)[C@H](NC(=O)[C@H](CC(C)C)NC(=O)[C@H](Cc1c[nH]c2ccccc12)NC(=O)[C@H](CCC(N)=O)NC(=O)[C@@H](NC(=O)[C@H](Cc1ccccc1)NC(=O)[C@H](C)NC(=O)[C@H](CCCCNC(=O)COCCOCCNC(=O)COCCOCCNC(=O)CC[C@H](NC(=O)CCCCCCCCCCCCCCCCCCC(=O)O)C(=O)O)NC(=O)[C@H](CCC(N)=O)NC(=O)[C@H](C)NC(=O)[C@@H](NC(=O)[C@H](CCCCN)NC(=O)[C@H](CC(=O)O)NC(=O)[C@H](CC(C)C)NC(=O)C(C)(C)NC(=O)[C@@H](NC(=O)[C@H](CO)NC(=O)[C@H](Cc1ccc(O)cc1)NC(=O)[C@H](CC(=O)O)NC(=O)[C@H](CO)NC(=O)[C@@H](NC(=O)[C@H](Cc1ccccc1)NC(=O)[C@@H](NC(=O)CNC(=O)[C@H](CCC(=O)O)NC(=O)CCCNC(=O)CNC(=O)Nc1ccc(F)c(F)c1)[C@@H](C)O)[C@@H](C)O)[C@@H](C)CC)[C@@H](C)CC)C(C)C)C(=O)N[C@@H](C)C(=O)NCC(=O)NCC(=O)N1CCC[C@H]1C(=O)N[C@@H](CO)C(=O)N[C@@H](CO)C(=O)NCC(=O)N[C@@H](C)C(=O)N1CCC[C@H]1C(=O)N1CCC[C@H]1C(=O)N1CCC[C@H]1C(=O)N[C@@H](CO)C(N)=O [Compound 264] ({X63-CO}-G[GABA]EGTFTSDYSI[Aib]LDKIAQK([AEEA-AEEA-γGlu-C20 diacid])AFVQWLIAGGPSSGAPPPS-NH2) | 8.00 to 9.00 | 97% | 8.00 to 9.00 | 106% | > 6.00 | < 6.00 |
| CC[C@H](C)[C@H](NC(=O)[C@H](CC(C)C)NC(=O)[C@H](Cc1c[nH]c2ccccc12)NC(=O)[C@H](CCC(N)=O)NC(=O)[C@@H](NC(=O)[C@H](Cc1ccccc1)NC(=O)[C@H](C)NC(=O)[C@H](CCCCNC(=O)COCCOCCNC(=O)COCCOCCNC(=O)CC[C@H](NC(=O)CCCCCCCCCCCCCCCCCCC(=O)O)C(=O)O)NC(=O)[C@H](CCC(N)=O)NC(=O)[C@H](C)NC(=O)[C@@H](NC(=O)[C@H](CCCCN)NC(=O)[C@H](CC(=O)O)NC(=O)[C@H](CC(C)C)NC(=O)C(C)(C)NC(=O)[C@@H](NC(=O)[C@H](CO)NC(=O)[C@H](Cc1ccc(O)cc1)NC(=O)[C@H](CC(=O)O)NC(=O)[C@H](CO)NC(=O)[C@@H](NC(=O)[C@H](Cc1ccccc1)NC(=O)[C@@H](NC(=O)CNC(=O)[C@H](CCC(=O)O)NC(=O)CCNC(=O)C1(c2ccc(Cl)cc2)CCCC1)[C@@H](C)O)[C@@H](C)O)[C@@H](C)CC)[C@@H](C)CC)C(C)C)C(=O)N[C@@H](C)C(=O)NCC(=O)NCC(=O)N1CCC[C@H]1C(=O)N[C@@H](CO)C(=O)N[C@@H](CO)C(=O)NCC(=O)N[C@@H](C)C(=O)N1CCC[C@H]1C(=O)N1CCC[C@H]1C(=O)N1CCC[C@H]1C(=O)N[C@@H](CO)C(N)=O [Compound 217] ({cPentCO(1-(4-ClPh))-βAla}-EGTFTSDYSI[Aib]LDKIAQK([AEEA-AEEA-γGlu-C20 diacid])AFVQWLIAGGPSSGAPPPS-NH2) | 9.00 to 10.00 | 101% | 9.00 to 10.00 | 108% | < 6.00 | < 6.00 |
